Inconclusive results and toxic doses are left out.
System: CD2F1 mice, L1210 leukemia ip, survival T/C
Assay: NCI In Vivo Anticancer Drug Screen. Data for tumor model L1210 Leukemia (intraperitoneal) in CD2F1 (CDF1) mice
Conditions: higher = longer survival
In short: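 Ratio T/C, where T is the treated-group value and C the vehicle-dosed control value, from mice implanted with a transplantable tumor.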

[1] = endpoint: mean survival time, dose: 200.0 mg/kg/injection, schedule: Q04DX003 (ip), vehicle: saline with Tween-80
[2] = endpoint: mean survival time, dose: 100.0 mg/kg/injection, schedule: Q01DX009 (ip), vehicle: saline with Tween-80
[3] = endpoint: mean survival time, dose: 200.0 mg/kg/injection, schedule: Q01DX009 (ip), vehicle: saline with Tween-80
[4] = endpoint: mean survival time, dose: 400.0 mg/kg/injection, schedule: Q01DX009 (ip), vehicle: saline with Tween-80

**Q.** For `CCCCCCCCCCCCCCCC[n+]1cccc(C(=O)NCO)c1`, which T/C (endpoint: mean survival time, dose: 6.25 mg/kg/injection, schedule: Q01DX009 (ip), vehicle: saline with Tween-80) is on record?
**A.** 102 % of control

**Q.** What about the T/C (endpoint: mean survival time, dose: 12.5 mg/kg/injection, schedule: Q01DX009 (ip), vehicle: saline with Tween-80) of the same compound?
**A.** 95 % of control

**Q.** And the T/C (endpoint: mean survival time, dose: 25.0 mg/kg/injection, schedule: Q01DX009 (ip), vehicle: saline with Tween-80)?
**A.** 95 % of control

**Q.** What about the T/C (endpoint: mean survival time, dose: 50.0 mg/kg/injection, schedule: Q04DX003 (ip), vehicle: saline with Tween-80) of the same compound?
**A.** 103 % of control

**Q.** What about the T/C [1] of the same compound?
**A.** 103 % of control

**Q.** Which T/C (endpoint: median survival time, dose: 50.0 mg/kg/injection, schedule: Q01DX009 (ip), vehicle: Klucel (hydroxypropylcellulose) (HPC)) does the source give for `C=C(c1ccc(OC)c(OC)c1)c1nccc2cc(OC)c(OC)cc12` here?
**A.** 101 % of control

**Q.** And the T/C (endpoint: median survival time, dose: 100.0 mg/kg/injection, schedule: Q01DX009 (ip), vehicle: Klucel (hydroxypropylcellulose) (HPC))?
**A.** 89 % of control

**Q.** What about the T/C (endpoint: median survival time, dose: 200.0 mg/kg/injection, schedule: Q01DX009 (ip), vehicle: Klucel (hydroxypropylcellulose) (HPC)) of the same compound?
**A.** 95 % of control

**Q.** What about the T/C (endpoint: median survival time, dose: 400.0 mg/kg/injection, schedule: Q01DX009 (ip), vehicle: Klucel (hydroxypropylcellulose) (HPC)) of the same compound?
**A.** 97 % of control

**Q.** And the T/C (endpoint: median survival time, dose: 800.0 mg/kg/injection, schedule: Q01DX009 (ip), vehicle: Klucel (hydroxypropylcellulose) (HPC))?
**A.** 108 % of control

**Q.** Which T/C [2] does the source give for `O=C(/C=C/c1ccccc1Cl)c1ccccc1[N+](=O)[O-]` here?
**A.** 89 % of control

**Q.** What about the T/C [3] of the same compound?
**A.** 94 % of control

**Q.** What about the T/C [4] of the same compound?
**A.** 95 % of control

**Q.** `O=C(Cl)c1ccccc1/C=C/c1ccc([N+](=O)[O-])cc1` was tested. Which T/C (endpoint: mean survival time, dose: 100.0 mg/kg/injection, schedule: Q01DX001 (ip), vehicle: saline with Tween-80) did it give?
**A.** 105 % of control

**Q.** And the T/C (endpoint: mean survival time, dose: 200.0 mg/kg/injection, schedule: Q01DX001 (ip), vehicle: saline with Tween-80)?
**A.** 103 % of control

**Q.** And the T/C (endpoint: mean survival time, dose: 400.0 mg/kg/injection, schedule: Q01DX001 (ip), vehicle: saline with Tween-80)?
**A.** 96 % of control

**Q.** What does the source list for `N#CC1c2ccccc2C=NN1C(=O)N(c1ccccc1)c1ccccc1` (stereo unspecified)?
**A.** T/C (endpoint: mean survival time, dose: 100.0 mg/kg/injection, schedule: Q04DX003 (ip), vehicle: other): 103 % of control; T/C (endpoint: mean survival time, dose: 200.0 mg/kg/injection, schedule: Q04DX003 (ip), vehicle: other): 105 % of control; T/C (endpoint: mean survival time, dose: 400.0 mg/kg/injection, schedule: Q04DX003 (ip), vehicle: other): 105 % of control

**Q.** Which results are given for `O=[As](O)(O)Cc1ccccc1`?
**A.** T/C (endpoint: mean survival time, dose: 6.25 mg/kg/injection, schedule: Q01DX009 (ip), vehicle: Klucel (hydroxypropylcellulose) (HPC)): 100 % of control; T/C (endpoint: mean survival time, dose: 12.5 mg/kg/injection, schedule: Q01DX009 (ip), vehicle: Klucel (hydroxypropylcellulose) (HPC)): 89 % of control; T/C (endpoint: mean survival time, dose: 25.0 mg/kg/injection, schedule: Q01DX009 (ip), vehicle: Klucel (hydroxypropylcellulose) (HPC)): 93 % of control

**Q.** Which T/C (endpoint: mean survival time, dose: 100.0 mg/kg/injection, schedule: Q04DX002 (ip), vehicle: Klucel (hydroxypropylcellulose) (HPC)) does the source give for `C=CCC1CN(CCC(O)c2ccc(F)cc2)CCC1(OC(=O)CC)c1ccccc1` (stereo unspecified) here?
**A.** 93 % of control

**Q.** And the T/C (endpoint: mean survival time, dose: 200.0 mg/kg/injection, schedule: Q04DX002 (ip), vehicle: Klucel (hydroxypropylcellulose) (HPC))?
**A.** 101 % of control

**Q.** And the T/C (endpoint: mean survival time, dose: 400.0 mg/kg/injection, schedule: Q04DX002 (ip), vehicle: Klucel (hydroxypropylcellulose) (HPC))?
**A.** 104 % of control

**Q.** How did the T/C (endpoint: mean survival time, dose: 1.25 mg/kg/injection, schedule: Q01DX009 (ip), vehicle: saline) turn out when `CN(Cc1cnc2nc(N[Si](C)(C)C)nc(N[Si](C)(C)C)c2n1)c1ccc(C(=O)NC(CCC(=O)O[Si](C)(C)C)C(=O)O[Si](C)(C)C)cc1` (stereo unspecified) was run?
**A.** 159 % of control

**Q.** What about the T/C (endpoint: mean survival time, dose: 1.9 mg/kg/injection, schedule: Q04DX003 (ip), vehicle: saline) of the same compound?
**A.** 117 % of control

**Q.** What about the T/C (endpoint: mean survival time, dose: 2.5 mg/kg/injection, schedule: Q01DX009 (ip), vehicle: saline) of the same compound?
**A.** 172 % of control

**Q.** And the T/C (endpoint: mean survival time, dose: 7.5 mg/kg/injection, schedule: Q04DX003 (ip), vehicle: saline)?
**A.** 159 % of control

**Q.** What about the T/C (endpoint: mean survival time, dose: 15.0 mg/kg/injection, schedule: Q04DX003 (ip), vehicle: saline) of the same compound?
**A.** 178 % of control

**Q.** What about the T/C (endpoint: mean survival time, dose: 20.0 mg/kg/injection, schedule: Q01DX009 (ip), vehicle: saline) of the same compound?
**A.** 103 % of control

**Q.** And the T/C (endpoint: mean survival time, dose: 30.0 mg/kg/injection, schedule: Q04DX003 (ip), vehicle: saline)?
**A.** 193 % of control

**Q.** And the T/C (endpoint: mean survival time, dose: 60.0 mg/kg/injection, schedule: Q04DX003 (ip), vehicle: saline)?
**A.** 155 % of control

**Q.** What about the T/C (endpoint: mean survival time, dose: 120.0 mg/kg/injection, schedule: Q04DX003 (ip), vehicle: saline) of the same compound?
**A.** 117 % of control

**Q.** With `NC(CSS(=O)(=O)O)=NCc1cccs1` as the compound, how does the T/C (endpoint: mean survival time, dose: 25.0 mg/kg/injection, schedule: Q04DX002 (ip), vehicle: saline with Tween-80) read?
**A.** 95 % of control

**Q.** And the T/C (endpoint: mean survival time, dose: 50.0 mg/kg/injection, schedule: Q04DX002 (ip), vehicle: saline with Tween-80)?
**A.** 115 % of control

**Q.** What does the source list for `[NH-]c1ccccc1C(=O)O.[NH-]c1ccccc1C(=O)O.[Ni+2]`?
**A.** T/C (endpoint: mean survival time, dose: 100.0 mg/kg/injection, schedule: Q04DX003 (ip), vehicle: saline with Tween-80): 93 % of control; T/C [1]: 107 % of control

**Q.** What does the source list for `COc1ccccc1NC(N)=O`?
**A.** T/C [2]: 95 % of control; T/C [3]: 86 % of control; T/C [4]: 95 % of control

From PubChem BioAssay AID256 (DTP/NCI, 2004)
